Laboratory results published in patent US11566056B2, “Peptide and use thereof for treatment of disease of brain and nervous system” (SYLUS CO., LTD, priority 2020, dated 2023).
Several values for one entry are separate records, joined by “and”; a condition that tells them apart may be missing. Equal values may be shown once. Ends that are not written are not given here.

How the values were obtained:
[1] = molecular target: T1, Soluble mouse EPOR chimera protein (Mus musculus, UniProt P14753); assay: surface plasmon resonance (SPR) binding to erythropoietin receptor; details: peptide 5, 2.5 and 1.25 μM
T1 construct: Soluble mouse EPOR chimera protein; purchased R&D Systems
T1 sequence (P14753 25-249 limits assumed): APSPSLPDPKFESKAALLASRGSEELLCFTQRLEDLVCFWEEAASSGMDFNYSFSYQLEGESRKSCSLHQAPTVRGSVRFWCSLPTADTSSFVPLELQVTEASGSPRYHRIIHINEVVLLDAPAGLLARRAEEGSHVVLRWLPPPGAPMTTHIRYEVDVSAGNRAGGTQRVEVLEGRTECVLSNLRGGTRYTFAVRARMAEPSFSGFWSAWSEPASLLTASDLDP
Experimental: The SPR technique uses an optical principle to measure the interaction between biomolecules in real time without a specific label, and is a system that analyzes the affinity and kinetics between two molecules, that is, Ka (association rate) and Kd (dissociation rate).
Specifically, the real-time SPR analysis was performed using Reichert SPR Biosensor SR 7500C equipment (Reichert Inc., NY, USA). Receptor mouse EPOR chimera protein (Soluble mouse EPOR chimera protein)(R&D Systems, Minneapolis, Minn., USA) was covalently bonded to a chip (BR-1005-39, Pharmacia Biosensor AB) coated with carboxy methylated dextran matrix by an amine coupling procedure using an amine coupling kit (BR-1000-50, GE Healthcare, USA) according to the manufacturer's manual. Peptides having concentrations of 5, 2.5 and 1.25 μM according to the present disclosure and scrambled peptides were tested by flowing at a flow rate of 5 μl/minute. In addition, the experiment was independently repeated to increase the accuracy. In addition, DMSO was flowed at 5 μl/minute to normalize the signal. After sufficiently inducing the binding of the peptide of an aspect to the receptor, regeneration was induced by injecting 20 μl/minute of 25 mM acetic acid into a sensor chip.

HT-22 cells = assay: cell viability under hypoxia-reoxygenation (H/R) conditions; assay type: cell-based; parameters: cell viability under hypoxia-reoxygenation conditions / cell viability under hypoxia-reoxygenation conditions, Average: unit not given here; details: for cell viability under hypoxia-reoxygenation conditions, Average: average of 3; for cell viability under hypoxia-reoxygenation conditions: individual replicate
Experimental: First, the degree of cell viability was confirmed. Specifically, HT-22 cells cultured on a 96-well plate or a 6-well plate for 24 hours were maintained under hypoxic condition for 18 hours in a sealed airtight container of Anaeropack (Mitsubishi Gas Company, Tokyo, Japan). The Anaeropack absorbs oxygen and generates carbon dioxide, thereby inducing a hypoxic environment. Next, reoxygenation was performed at 5% CO2 and 37° C. for 3 hours.
Cell viability was compared when treated with SY-1, SY-2 and SY-3 of H/R cells cultured under low oxygen conditions (Hypoxia) and later cultured under oxygen conditions (Reoxygenation).

| Sequence | ka [1] | kd [1] | cell viability under hypoxia-reoxygenation conditions, Average (HT-22 cells; 1 uM) | cell viability under hypoxia-reoxygenation conditions (HT-22 cells; 1 uM) | cell viability under hypoxia-reoxygenation conditions, Average (HT-22 cells; 2.5 uM) | cell viability under hypoxia-reoxygenation conditions (HT-22 cells; 2.5 uM) | cell viability under hypoxia-reoxygenation conditions, Average (HT-22 cells; 5 uM) | cell viability under hypoxia-reoxygenation conditions (HT-22 cells; 5 uM) | cell viability under H/R conditions (in words) (HT-22 cells; hypoxia 18 hours, reoxygenation 3 hours) |
| --- | --- | --- | --- | --- | --- | --- | --- | --- | --- |
| LQLHVLKAVSGLRTLTMIRRALG [SY-2] | 32.5770 | 0.0506 | 0.671 | 0.658 and 0.673 and 0.682 | 0.676 | 0.671 and 0.667 and 0.689 | 0.661 | 0.652 and 0.677 and 0.655 | – |
| LQLHVLKAVSGLRTLTTLLRALG [SY-1] | 31.5970 | 0.0446 | 0.654 | 0.662 and 0.657 and 0.644 | 0.655 | 0.649 and 0.663 and 0.652 | 0.647 | 0.648 and 0.653 and 0.641 | – |
| LQLHVLKAVAGLRTLTMIRRALA [SY-3] | 25.6240 | 0.0554 | 0.726 | 0.722 and 0.736 and 0.719 | 0.735 | 0.739 and 0.741 and 0.724 | 0.727 | 0.707 and 0.732 and 0.741 | the cell viability was the highest |
